# Measurements from US20050282818A1, “Ubiquitin ligase inhibitors” (Rigel Pharmaceuticals, Inc., priority 2004, published 2005).
# Key:
# APC11/APC2 = APC11/APC2 (Homo sapiens, UniProt Q9NYG5+Q9UJX6); assay: APC-11/APC-2 ligase assay (APC auto ubiquitination); format: biochemical; details: APC assay
# Method in brief: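 His-tagged APC was captured on nickel plates with human E1 (5 ng/well), UbcH5c (20 ng/well), APC (100 ng/well) and Flag-ubiquitin (100 ng/well) in a Tris pH 7.6 reaction buffer containing 2.5 mM ATP, for 1 hour at room temperature. Read-out was anti-Flag/HRP chemiluminescence. IC50 was set against a DMSO control, typically from 6 or 8 concentrations.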
# TRAF6/Uev1A/Ubc13 = target: T1, TRAF6/Uev1A/Ubc13 (Homo sapiens, UniProt Q9Y4K3); assay: TRAF6/Uev1A/Ubc13 plate-based ubiquitin ligase assay; format: biochemical
# T1 sequence (Q9Y4K3 1-522): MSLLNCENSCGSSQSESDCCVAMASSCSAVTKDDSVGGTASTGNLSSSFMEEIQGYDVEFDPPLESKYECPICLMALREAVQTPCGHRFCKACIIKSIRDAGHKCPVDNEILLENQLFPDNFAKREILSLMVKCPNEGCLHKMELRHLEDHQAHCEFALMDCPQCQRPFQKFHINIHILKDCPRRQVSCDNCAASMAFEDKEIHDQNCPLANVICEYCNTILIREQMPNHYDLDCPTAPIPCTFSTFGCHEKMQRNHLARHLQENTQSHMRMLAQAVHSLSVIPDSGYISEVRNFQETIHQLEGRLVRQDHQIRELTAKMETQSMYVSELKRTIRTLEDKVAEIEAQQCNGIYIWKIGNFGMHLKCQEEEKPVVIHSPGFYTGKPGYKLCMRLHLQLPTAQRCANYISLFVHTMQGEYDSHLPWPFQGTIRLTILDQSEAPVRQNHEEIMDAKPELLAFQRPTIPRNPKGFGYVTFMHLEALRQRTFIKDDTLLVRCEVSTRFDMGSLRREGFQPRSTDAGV
# Method in brief: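 Ligase activity was read as luminescence from anti-Flag/HRP detection of Flag-ubiquitin bound to casein-blocked Ni-plates alongside His-ubiquitin after a 1 h room-temperature reaction. Buffer: 62.5 mM Tris pH 7.5, 6.25 mM MgCl2, 1.0 mM DTT, 2 μM ATP; E1, Uev1a/Ubc13 and TRAF6 added last to start. IC50s derived across compound concentrations.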
# [1] = tested on: ICAM-1 expression in A549 cells; assay: ICAM assay (IL-1 induced ICAM-1/CD54 expression in A549 cells); format: cell-based, human; details: Homo sapiens, A549, ICAM assay
# Method in brief: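 Luminescent immunostaining (anti-CD54, then anti-mouse IgG, 1 h) quantifies ICAM-1 on A549 cells induced 4 h at 37° C by IL-1 (4 μl of 25 ng/ml added). Compound is added 1 h before the cytokine to cells plated overnight at 10,000 per well.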
# Sequence of APC11/APC2 (Q9NYG5 whole entry): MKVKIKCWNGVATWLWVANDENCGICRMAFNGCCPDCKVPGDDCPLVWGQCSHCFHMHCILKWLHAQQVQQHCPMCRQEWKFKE
# Sequence of APC11/APC2 (Q9UJX6 whole entry): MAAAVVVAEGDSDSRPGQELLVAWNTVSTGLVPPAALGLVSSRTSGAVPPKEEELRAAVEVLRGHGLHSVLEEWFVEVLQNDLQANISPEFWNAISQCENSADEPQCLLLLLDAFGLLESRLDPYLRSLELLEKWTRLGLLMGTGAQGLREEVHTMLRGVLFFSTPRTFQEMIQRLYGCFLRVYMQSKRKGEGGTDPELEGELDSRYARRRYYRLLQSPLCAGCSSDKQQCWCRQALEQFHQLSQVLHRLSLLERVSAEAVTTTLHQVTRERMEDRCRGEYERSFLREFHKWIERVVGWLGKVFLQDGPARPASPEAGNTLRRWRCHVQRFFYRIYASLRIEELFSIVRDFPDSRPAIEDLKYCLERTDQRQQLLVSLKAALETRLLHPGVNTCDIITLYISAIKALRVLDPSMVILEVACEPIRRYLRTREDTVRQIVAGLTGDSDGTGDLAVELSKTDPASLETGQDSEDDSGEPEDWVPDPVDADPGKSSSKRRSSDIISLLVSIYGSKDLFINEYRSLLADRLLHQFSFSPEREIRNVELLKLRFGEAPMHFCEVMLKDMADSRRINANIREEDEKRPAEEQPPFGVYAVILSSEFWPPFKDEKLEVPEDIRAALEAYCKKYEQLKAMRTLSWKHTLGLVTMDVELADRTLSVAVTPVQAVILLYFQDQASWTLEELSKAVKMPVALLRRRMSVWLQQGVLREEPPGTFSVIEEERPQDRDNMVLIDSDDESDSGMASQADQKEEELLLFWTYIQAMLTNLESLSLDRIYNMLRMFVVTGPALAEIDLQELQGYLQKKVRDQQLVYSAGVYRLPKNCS
IC50 (APC11/APC2),IC50 (TRAF6/Uev1A/Ubc13),IC50 [1],Compound
≥ 20 µM,≥ 20 µM,≥ 20 µM,"Fc1cc2nsnc2cc1-c1ccccc1 [compound 458, 5-fluoro-6-phenyl-2,1,3-benzthiadiazole]"
≥ 20 µM,≥ 20 µM,≥ 20 µM,"Cc1cccc(-c2cc(C(F)(F)F)cc3nonc23)c1C [compound 473, 4-(2,3-dimethylphenyl)-6-(trifluoromethyl)-2,1,3-benzoxadiazole]"
≥ 20 µM,≥ 20 µM,≥ 20 µM,"FC(F)(F)c1cc(-c2ccccc2)c2nonc2c1 [compound 474, 4-phenyl-6-(trifluoromethyl)-2,1,3-benzoxadiazole]"
≥ 20 µM,≥ 20 µM,≥ 20 µM,"FC(F)(F)c1cc(-c2ccc3c(c2)OCO3)c2nonc2c1 [compound 475, 4-(benzodioxol-5-yl)-6-(trifluoromethyl)-2,1,3-benzoxadiazole]"
≥ 20 µM,≥ 20 µM,≥ 20 µM,"Cc1ccc(-c2cc([N+](=O)[O-])cc3nonc23)cc1 [compound 476, 6-nitro-4-p-tolyl-2,1,3-benzoxadiazole]"
1 to 20 µM,≥ 20 µM,1 to 20 µM,"O=[N+]([O-])c1cc(-c2ccc(C(F)(F)F)cc2C(F)(F)F)c2nonc2c1 [compound 477, 4-(2,4-bis[trifluoromethyl]phenyl)-6-nitro-2,1,3-benzoxadiazole]"
1 to 20 µM,≥ 20 µM,1 to 20 µM,"Cc1cccc(-c2cc([N+](=O)[O-])cc3nonc23)c1 [compound 478, 6-nitro-4-m-tolyl-2,1,3-benzoxadiazole]"
≥ 20 µM,≥ 20 µM,≥ 20 µM,"O=[N+]([O-])c1cc(-c2cc(F)cc(F)c2)c2nonc2c1 [compound 479, 4-(3,5-difluorophenyl)-6-nitro-2,1,3-benzoxadiazole]"
1 to 20 µM,≥ 20 µM,1 to 20 µM,"O=[N+]([O-])c1cc(-c2cccc(C(F)(F)F)c2)c2nonc2c1 [compound 480, 4-(3-[trifluoromethyl]phenyl)-6-nitro-2,1,3-benzoxadiazole]"
1 to 20 µM,1 to 20 µM,1 to 20 µM,"CC(C)(C)c1ccc(-c2cc([N+](=O)[O-])cc3nonc23)cc1 [compound 481, 4-(4-t-butylphenyl)-6-nitro-2,1,3-benzoxadiazole]"
≥ 20 µM,≥ 20 µM,≥ 20 µM,"COc1ccccc1-c1cc([N+](=O)[O-])cc2nonc12 [compound 482, 4-(2-methoxyphenyl)-6-nitro-2,1,3-benzoxadiazole]"
≥ 20 µM,≥ 20 µM,≥ 20 µM,"O=[N+]([O-])c1cc(-c2cccc3cccnc23)c2nonc2c1 [compound 483, 6-nitro-4-(quinolin-8-yl)-2,1,3-benzoxadiazole]"

# Further lines, the molecule ahead of its results:
Compound,IC50 (APC11/APC2),IC50 (TRAF6/Uev1A/Ubc13),IC50 [1]
"O=S(=O)(NCc1ccncc1)c1ccc(Cl)c2nonc12 [compound 455, 7-chloro-N-(pyridin-4-ylmethyl)-2,1,3-benzoxadiazole-4-sulfonamide]",≥ 20 µM,≥ 20 µM,1 to 20 µM
"O=C1CCCN1CCCNS(=O)(=O)c1ccc(Cl)c2nonc12 [compound 456, 7-chloro-N-(3-[2-oxopyrrolidin-1-yl]propyl)-2,1,3-benzoxadiazole-4-sulfonamide]",≥ 20 µM,≥ 20 µM,≥ 20 µM
"Cc1cccc(-c2cc3nsnc3cc2F)c1C [compound 457, 5-(2,3-dimethylphenyl)-6-fluoro-2,1,3-benzthiadiazole]",≥ 20 µM,≥ 20 µM,≥ 20 µM
"Cc1ccc(-c2cc3nsnc3cc2F)cc1C [compound 459, 5-(3,4-dimethylphenyl)-6-fluoro-2,1,3-benzthiadiazole]",≥ 20 µM,≥ 20 µM,≥ 20 µM
"Fc1cc2nsnc2cc1-c1cccc2c1OCO2 [compound 460, 5-(benzodioxol-4-yl)-6-fluoro-2,1,3-benzthiadiazole]",≥ 20 µM,≥ 20 µM,≥ 20 µM
"Cc1cc(C)cc(-c2cc3nsnc3cc2F)c1 [compound 461, 5-(3,5-dimethylphenyl)-6-fluoro-2,1,3-benzthiadiazole]",≥ 20 µM,≥ 20 µM,≥ 20 µM
"COc1ccc(-c2cc3nsnc3cc2F)cc1 [compound 462, 5-(4-methoxyphenyl)-6-fluoro-2,1,3-benzthiadiazole]",≥ 20 µM,≥ 20 µM,≥ 20 µM
"COc1ccc(-c2cc3nsnc3cc2F)cc1OC [compound 463, 5-(3,4-dimethoxyphenyl)-6-fluoro-2,1,3-benzthiadiazole]",≥ 20 µM,≥ 20 µM,≥ 20 µM
"O=[N+]([O-])c1ccc(-c2ccc(Oc3ccccc3)cc2)c2nonc12 [compound 464, 4-nitro-7-(4-phenoxyphenyl)-2,1,3-benzoxadiazole]",1 to 20 µM,1 to 20 µM,1 to 20 µM
"COc1ccc(-c2ccc([N+](=O)[O-])c3nonc23)cc1OC [compound 465, 4-(3,4-dimethoxyphenyl)-7-nitro-2,1,3-benzoxadiazole]",≥ 20 µM,≥ 20 µM,1 to 20 µM
"COc1ccc(-c2ccc([N+](=O)[O-])c3nonc23)cc1 [compound 466, 4-(4-methoxyphenyl)-7-nitro-2,1,3-benzoxadiazole]",≥ 20 µM,1 to 20 µM,1 to 20 µM
"O=[N+]([O-])c1ccc(-c2ccc3c(c2)OCO3)c2nonc12 [compound 467, 4-(benzodioxol-5-yl)-7-nitro-2,1,3-benzoxadiazole]",1 to 20 µM,1 to 20 µM,1 to 20 µM
"Cc1ccc(-c2ccc([N+](=O)[O-])c3nonc23)cc1 [compound 468, 4-(4-methylphenyl)-7-nitro-2,1,3-benzoxadiazole]",1 to 20 µM,≥ 20 µM,1 to 20 µM
"O=[N+]([O-])c1ccc(-c2cccc3ccccc23)c2nonc12 [compound 469, 4-(naphthalen-1-yl)-7-nitro-2,1,3-benzoxadiazole]",1 to 20 µM,≥ 20 µM,1 to 20 µM
"Cc1cccc(-c2ccc([N+](=O)[O-])c3nonc23)c1C [compound 470, 4-(2,3-dimethylphenyl)-7-nitro-2,1,3-benzoxadiazole]",1 to 20 µM,≥ 20 µM,1 to 20 µM
"Cc1ccc(C)c(-c2ccc([N+](=O)[O-])c3nonc23)c1 [compound 471, 4-(2,5-dimethylphenyl)-7-nitro-2,1,3-benzoxadiazole]",1 to 20 µM,≥ 20 µM,1 to 20 µM
"Cc1ccc(-c2ccc([N+](=O)[O-])c3nonc23)cc1C [compound 472, 4-(3,4-dimethylphenyl)-7-nitro-2,1,3-benzoxadiazole]",1 to 20 µM,1 to 20 µM,1 to 20 µM
"Cc1ccc(C)c(-c2cc([N+](=O)[O-])cc3nonc23)c1 [compound 484, 4-(2,5-dimethylphenyl)-6-nitro-2,1,3-benzoxadiazole]",≥ 20 µM,≥ 20 µM,≥ 20 µM
